Data set [1] is described as follows: Assay (VI) PK - determination of T½ in rat. The note with it: sc, terminal plasma half-life, subcutaneous, approx 20 nmol/kg, male Sprague Dawley rats. The data set is classed as in vivo. The method, then: Assay (VI) PK—Determination OF T½ in Rat
T½ is the terminal half-life=ln 2/λz of a compound in plasma. λz is the first order rate constant associated with the terminal (log-linear) portion of the plasma concentration-time curve and is estimated by linear regression of time vs. log concentration.
T½ values of the amylin analogues of the invention is determined by pharmacokinetic studies in Sprague Dawley male rats, from Taconic Europe and the principles of laboratory animal care are followed.
An acclimatization period of approximately 7 days was allowed before the animals entered the study. At start of the acclimatization period the rats were in the weight range of 300-400 g. The rats had permanent catheters inserted in a. carotis which were used for blood sampling.
The studies were conducted in an animal room which was illuminated to give a cycle of approx 12 hours light and 12 hours darkness. The animals were housed individually due to the catheters and had food and water ad lib. The animals were weighed on the days of dosing.
In the present studies the test substances were administered subcutaneously in approx 20 nmol/kg dose. The animals received a single subcutaneous injection to the neck using a 25 G needle with syringe. Each test substance was given to typically three but in some cases two or four animals.
A full plasma concentration-time profile, employing 8-10 sampling points, was obtained from each animal. In example blood samples were collected according to the following schedule:
After subcutaneous administration:
Predose (0), 0.5, 1, 1.5, 2, 4, 6, 12, 24, 48 and 72 hours after injection. At each sampling time, 0.08 to 0.10 ml of blood was drawn from each animal. The blood samples were taken via the catheter.
The blood samples were collected into EDTA test tubes. Blood samples were kept on ice for max 20 min. before centrifugation. Plasma was separated using centrifugation (i.e. at 4° C., 10 min., 1500 G) and was immediately transferred to Micronic tubes or PCR plates. Approximately 40 μl plasma was transferred and was stored at −20° C. until assayed. The plasma samples were assayed for the content of amylin using an ELISA assay.
The plasma concentration-time profiles were analysed by a non-compartmental pharmacokinetic analysis (NCA) using WinNonlin Professional 5.0 (Pharsight Inc., Mountain View, Calif., USA). NCA was performed using the individual plasma concentration-time profiles from each animal. T½ is the terminal half-life=ln 2/λz and was determined from λz, the first order rate constant associated with the terminal (log-linear) portion of the curve, estimated by linear regression of time vs. log concentration.
ELISA Plasma Assay for Amylin Quantification
The human amylin ELISA is a monoclonal antibody-based sandwich immunoassay for determining amylin levels in human plasma. The capture antibody recognizes human amylin, amylin acid (deamidated amylin), a 1-20 fragment of amylin, but not reduced amylin. The detection antibody binds to reduced or unreduced human amylin but not amylin acid and is complexed with streptavidin-alkaline phosphatase. The substrate, 4-methylumbelliferyl phosphate, is applied to the completed sandwich and the fluorescent signal, monitored at 355 nm/460 nm, is proportional to the amount of amylin present in the sample.

Data set [2] is described as follows: Assay (V) PK - determination of T½ in mini-pig. The class given is in vivo. The note with it: minipig, sc, terminal plasma half-life, subcutaneous, approx 2 nmol/kg, male Göttingen mini-pigs. In outline: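 Male Göttingen mini-pigs (5–12 months, 7–35 kg) got a single s.c. neck injection of approx 2 nmol/kg; plasma sampled via central venous catheter predose to 240 h (some to 288 h). Amylin measured by sandwich ELISA; T½ = ln 2/λz from non-compartmental analysis of individual profiles.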

For data set [3], the target named is T1, Amylin 3(a) receptor (human calcitonin receptor (CTa) and RAMP-3) (Homo sapiens, UniProt O60896+P30988).
T1 construct: expressed in transfected cells; host or cells: BHK570 cells, stably transfected with a CRE-luciferase reporter
In words: Luciferase assay (III), BHK Amylin 3(a)//CRE-luc cells. The class given is cell-based. The note with it: BHK cells with Amylin 3(a) receptor and CRE luciferase reporter, 4 hours incubation; read-out: Potency Luciferase. The procedure, abridged:
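Read-out is CRE-driven luciferase luminescence, taken 30 min after LucLite addition at room temperature. Compounds were incubated 4 h at 37° C in assay medium (10% FBS, 10 mM Hepes, pH 7,4). The cell line is BHK570 co-transfected with human calcitonin receptor CTa and RAMP-3, seeded overnight before use.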
For orientation: A reporter such as luciferase makes a cellular process visible.

One may read the half-life as the time needed for the level to fall by half in the phase considered. A low value points to rapid decline.

*1 amine or outer side, *2 acyl side, *3 side chain or, on linkers, in order; H or OH if unused. Where a SMILES comes first, the peptide text is derived from it. Bridges are numbered along the chain shown (N, C = ends). The star is where a group is joined. C20 diacid = O=C(O)CCCCCCCCCCCCCCCCCCC(=O)*; C18 diacid = O=C(O)CCCCCCCCCCCCCCCCC(=O)*; γGlu = O=C(O)[C@H](CCC(=O)[*:2])N[*:1]

T1 sequence (O60896 24-148): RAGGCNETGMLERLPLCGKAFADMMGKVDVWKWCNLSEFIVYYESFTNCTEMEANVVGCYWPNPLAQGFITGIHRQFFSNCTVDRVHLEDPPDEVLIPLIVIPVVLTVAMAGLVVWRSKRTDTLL
T1 sequence (P30988 25-474): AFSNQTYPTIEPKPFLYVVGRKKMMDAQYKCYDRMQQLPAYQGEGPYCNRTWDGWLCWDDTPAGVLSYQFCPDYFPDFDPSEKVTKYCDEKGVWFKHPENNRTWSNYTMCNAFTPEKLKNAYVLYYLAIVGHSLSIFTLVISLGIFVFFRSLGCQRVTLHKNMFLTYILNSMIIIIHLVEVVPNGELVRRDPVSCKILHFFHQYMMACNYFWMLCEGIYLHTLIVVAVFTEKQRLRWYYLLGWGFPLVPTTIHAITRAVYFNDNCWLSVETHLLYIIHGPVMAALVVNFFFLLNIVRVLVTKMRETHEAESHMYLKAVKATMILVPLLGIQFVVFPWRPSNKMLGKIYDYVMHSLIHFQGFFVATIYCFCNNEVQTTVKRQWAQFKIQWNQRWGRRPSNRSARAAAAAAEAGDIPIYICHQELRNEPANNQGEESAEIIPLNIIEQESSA

As to `CC[C@H](C)[C@H](NC(=O)[C@@H]1CCCN1C(=O)CNC(=O)[C@H](Cc1ccccc1)NC(=O)[C@H](CC(N)=O)NC(=O)[C@H](CC(N)=O)NC(=O)[C@H](CO)NC(=O)[C@H](CO)NC(=O)[C@H](Cc1c[nH]cn1)NC(=O)[C@H](Cc1c[nH]cn1)NC(=O)[C@H](CC(C)C)NC(=O)[C@H](Cc1ccccc1)NC(=O)[C@H](CC(N)=O)NC(=O)[C@H](C)NC(=O)[C@H](CC(C)C)NC(=O)[C@H](CCCNC(=N)N)NC(=O)[C@H](CCC(N)=O)NC(=O)[C@@H](NC(=O)[C@H](C)NC(=O)[C@@H]1CSSC[C@H](NC(=O)[C@H](CCCCN)NC(=O)CC[C@H](NC(=O)CCCCCCCCCCCCCCCCCCC(=O)O)C(=O)O)C(=O)N[C@@H](CC(N)=O)C(=O)N[C@@H]([C@@H](C)O)C(=O)N[C@@H](C)C(=O)N[C@@H]([C@@H](C)O)C(=O)N1)[C@@H](C)O)C(=O)N[C@@H](CC(C)C)C(=O)N1CCC[C@H]1C(=O)N1CCC[C@H]1C(=O)N[C@H](C(=O)N[C@@H](CC(N)=O)C(=O)N[C@H](C(=O)NCC(=O)N[C@@H](CO)C(=O)N[C@@H](CC(N)=O)C(=O)N[C@H](C(=O)N[C@@H](Cc1ccc(O)cc1)C(N)=O)[C@@H](C)O)C(C)C)[C@@H](C)O` [Example 5, N-alpha-[(S)-4-Carboxy-4-(19-carboxynonadecanoylamino)butyryl]-[His17]-pramlintide] ({C20 diacid-γGlu}-KCNTATCATQRLANFLHHSSNNFGPILPPTNVGSNTY-NH2; disulfide 2-7), the half-life in data set [1] (in vivo) was 16 h; in data set [2] (in vivo) it was 70 h. Further, the EC50 in data set [3] was found to be 0.1 nM.

Regarding `CC[C@H](C)[C@H](NC(=O)[C@@H]1CCCN1C(=O)CNC(=O)[C@H](Cc1ccccc1)NC(=O)[C@H](CC(N)=O)NC(=O)[C@H](CC(N)=O)NC(=O)[C@H](CO)NC(=O)[C@H](CO)NC(=O)[C@H](Cc1c[nH]cn1)NC(=O)[C@H](CO)NC(=O)[C@H](CC(C)C)NC(=O)[C@H](Cc1ccccc1)NC(=O)[C@H](CC(N)=O)NC(=O)[C@H](C)NC(=O)[C@H](CC(C)C)NC(=O)[C@H](CCCNC(=N)N)NC(=O)[C@H](CCC(N)=O)NC(=O)[C@@H](NC(=O)[C@H](C)NC(=O)[C@@H]1CSSC[C@H](NC(=O)[C@H](CCCCN)NC(=O)[C@H](CCCNC(=N)N)NC(=O)CC[C@H](NC(=O)CCCCCCCCCCCCCCCCCCC(=O)O)C(=O)O)C(=O)N[C@@H](CC(N)=O)C(=O)N[C@@H]([C@@H](C)O)C(=O)N[C@@H](C)C(=O)N[C@@H]([C@@H](C)O)C(=O)N1)[C@@H](C)O)C(=O)N[C@@H](CC(C)C)C(=O)N1CCC[C@H]1C(=O)N1CCC[C@H]1C(=O)N[C@H](C(=O)N[C@@H](CC(N)=O)C(=O)N[C@H](C(=O)NCC(=O)N[C@@H](CO)C(=O)N[C@@H](CC(N)=O)C(=O)N[C@H](C(=O)N[C@@H](Cc1ccc(O)cc1)C(N)=O)[C@@H](C)O)C(C)C)[C@@H](C)O` [Example 20, N-alpha-[(S)-4-Carboxy-4-(19-carboxynonadecanoylamino)butyryl]-Arg-[Ser17]-pramlintide] ({C20 diacid-γGlu}-RKCNTATCATQRLANFLSHSSNNFGPILPPTNVGSNTY-NH2; disulfide 3-8), the half-life in data set [1] was 10 h; in data set [2], 41 h. The EC50 in data set [3] was found to be 0.1 nM.

For the molecule `CC[C@H](C)[C@H](NC(=O)[C@@H]1CCCN1C(=O)CNC(=O)[C@H](Cc1ccccc1)NC(=O)[C@H](CC(N)=O)NC(=O)[C@H](CC(N)=O)NC(=O)[C@H](CO)NC(=O)[C@H](CO)NC(=O)[C@H](Cc1c[nH]cn1)NC(=O)[C@H](Cc1c[nH]cn1)NC(=O)[C@H](CC(C)C)NC(=O)[C@H](Cc1ccccc1)NC(=O)[C@H](CC(N)=O)NC(=O)[C@H](C)NC(=O)[C@H](CC(C)C)NC(=O)[C@H](CCCNC(=N)N)NC(=O)[C@H](CCC(N)=O)NC(=O)[C@@H](NC(=O)[C@H](C)NC(=O)[C@@H]1CSSC[C@H](NC(=O)CC[C@H](NC(=O)CCCCCCCCCCCCCCCCC(=O)O)C(=O)O)C(=O)N[C@@H](CC(N)=O)C(=O)N[C@@H]([C@@H](C)O)C(=O)N[C@@H](C)C(=O)N[C@@H]([C@@H](C)O)C(=O)N1)[C@@H](C)O)C(=O)N[C@@H](CC(C)C)C(=O)N1CCC[C@H]1C(=O)N1CCC[C@H]1C(=O)N[C@H](C(=O)N[C@@H](CC(N)=O)C(=O)N[C@H](C(=O)NCC(=O)N[C@@H](CO)C(=O)N[C@@H](CC(N)=O)C(=O)N[C@H](C(=O)N[C@@H](Cc1ccc(O)cc1)C(N)=O)[C@@H](C)O)C(C)C)[C@@H](C)O` [Example 10, N-alpha-[(S)-4-Carboxy-4-(17-carboxyheptadecanoylamino)butyryl]-[His17]-pramlintide (2-37)] ({C18 diacid-γGlu}-CNTATCATQRLANFLHHSSNNFGPILPPTNVGSNTY-NH2; disulfide 1-6), the values for the half-life in data set [1] and in data set [2] were 11 h and 66 h, respectively. The EC50 in data set [3] was found to be 0.08 nM.

In the case of `CC[C@H](C)[C@H](NC(=O)[C@@H]1CCCN1C(=O)CNC(=O)[C@H](Cc1ccccc1)NC(=O)[C@H](CC(N)=O)NC(=O)[C@H](CC(N)=O)NC(=O)[C@H](CO)NC(=O)[C@H](CO)NC(=O)[C@H](Cc1c[nH]cn1)NC(=O)[C@H](CCCNC(=N)N)NC(=O)[C@H](CC(C)C)NC(=O)[C@H](Cc1ccccc1)NC(=O)[C@H](CC(N)=O)NC(=O)[C@H](C)NC(=O)[C@H](CC(C)C)NC(=O)[C@H](CCCNC(=N)N)NC(=O)[C@H](CCC(N)=O)NC(=O)[C@@H](NC(=O)[C@H](C)NC(=O)[C@@H]1CSSC[C@H](NC(=O)[C@H](CCCCN)NC(=O)[C@H](CCCNC(=N)N)NC(=O)CC[C@H](NC(=O)CCCCCCCCCCCCCCCCCCC(=O)O)C(=O)O)C(=O)N[C@@H](CC(N)=O)C(=O)N[C@@H]([C@@H](C)O)C(=O)N[C@@H](C)C(=O)N[C@@H]([C@@H](C)O)C(=O)N1)[C@@H](C)O)C(=O)N[C@@H](CC(C)C)C(=O)N1CCC[C@H]1C(=O)N1CCC[C@H]1C(=O)N[C@H](C(=O)N[C@@H](CC(N)=O)C(=O)N[C@H](C(=O)NCC(=O)N[C@@H](CO)C(=O)N[C@@H](CC(N)=O)C(=O)N[C@H](C(=O)N[C@@H](Cc1ccc(O)cc1)C(N)=O)[C@@H](C)O)C(C)C)[C@@H](C)O` [Example 22, N-alpha-[(S)-4-Carboxy-4-(19-carboxynonadecanoylamino)butyryl]-Arg-[Arg17]-pramlintide] ({C20 diacid-γGlu}-RKCNTATCATQRLANFLRHSSNNFGPILPPTNVGSNTY-NH2; disulfide 3-8), the half-life in data set [1] was 13 h; in data set [2], 34 h. In data set [3], the EC50 came out at 0.1 nM.

Values taken from US8895504B2, “Amylin derivatives” (priority 2008, dated 2014).
